How the values were obtained:
[1] = molecular target: T1, human recombinant ETB receptors (Homo sapiens, UniProt P24530); test: Inhibition of [125I]ET-1 binding to membranes from CHO cells carrying human ETB receptors
T1 construct: expressed in transfected cells; host or cells: CHO cells (microsomal membranes)
T1 sequence (P24530 27-442): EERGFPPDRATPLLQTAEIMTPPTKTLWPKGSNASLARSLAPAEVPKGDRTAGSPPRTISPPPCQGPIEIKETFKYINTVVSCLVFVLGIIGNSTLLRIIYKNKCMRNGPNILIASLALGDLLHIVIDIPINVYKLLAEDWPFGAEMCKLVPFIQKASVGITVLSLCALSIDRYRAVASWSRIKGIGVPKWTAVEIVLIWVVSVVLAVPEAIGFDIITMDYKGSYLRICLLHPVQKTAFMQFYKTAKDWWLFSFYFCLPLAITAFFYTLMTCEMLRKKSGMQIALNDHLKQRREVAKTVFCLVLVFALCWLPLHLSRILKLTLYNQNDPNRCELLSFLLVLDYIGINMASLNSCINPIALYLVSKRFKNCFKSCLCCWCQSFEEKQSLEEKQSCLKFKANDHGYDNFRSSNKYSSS
Experimental: (§1) 1) Inhibition of Endothelin Binding to Membranes from CHO Cells Carrying Human ET Receptors:
(§2) For competition binding studies, membranes of CHO cells expressing human recombinant ETA or ETB receptors were used.
(§3) The assay was performed in 200 uL 50 mM Tris/HCl buffer, pH 7.4, including 25 mM MnCl2, 1 mM EDTA and 0.5% (w/v) BSA in polypropylene microtiter plates. […] After 2 h, the membranes were filtered on filterplates containing GF/C filters (Unifilterplates from Canberra Packard S.A. Zürich, Switzerland). To each well, 50 uL of scintillation cocktail was added (MicroScint 20, Canberra Packard S.A. Zürich, Switzerland) and the filter plates counted in a microplate counter (TopCount, Canberra Packard S.A. Zürich, Switzerland).
(§4) All the test compounds were dissolved, diluted and added in DMSO.

[2] = molecular target: T2, human recombinant ETA receptors (Homo sapiens, UniProt P25101); test: Inhibition of [125I]ET-1 binding to membranes from CHO cells carrying human ETA receptors
T2 construct: expressed in transfected cells; host or cells: CHO cells (microsomal membranes)
T2 sequence (P25101 21-427): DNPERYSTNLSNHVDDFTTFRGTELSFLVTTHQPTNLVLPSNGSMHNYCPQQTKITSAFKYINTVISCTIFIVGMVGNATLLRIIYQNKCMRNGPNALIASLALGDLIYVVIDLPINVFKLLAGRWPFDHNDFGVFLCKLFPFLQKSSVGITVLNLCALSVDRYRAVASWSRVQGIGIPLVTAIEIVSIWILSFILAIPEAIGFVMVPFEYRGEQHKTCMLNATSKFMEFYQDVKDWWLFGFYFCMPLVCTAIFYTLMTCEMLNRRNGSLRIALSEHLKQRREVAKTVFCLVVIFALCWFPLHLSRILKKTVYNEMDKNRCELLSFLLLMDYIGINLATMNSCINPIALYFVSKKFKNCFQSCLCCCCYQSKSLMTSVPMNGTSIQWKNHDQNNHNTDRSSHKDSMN
Experimental: as §1, §2, §3, §4
Note: 2.5% DMSO.

Structure (SMILES) | IC50 [1] [nM] | IC50 [2] [nM]
CCS(=O)(=O)Nc1ncnc(OCCOc2ncc(Br)cn2)c1-c1ccc(Cl)cc1 [Example 66] | > 1000 | 1.5
CCCS(=O)(=O)Nc1nc(-c2ncccn2)nc(OCCOc2ncc(SC)cn2)c1Oc1ccccc1OC [Example 9, n-propanesulfonic acid [6-[2-(5-methylsulfanyl-pyrimidin-2-yloxy)-ethoxy]-5-(2-methoxy-phenoxy)-[2,2′]bipyrimidinyl-4-yl]-amide] | 187 | 5.2
COc1ccccc1Oc1c(NS(C)(=O)=O)nc(-c2ncccn2)nc1OCCOc1ncc(SC)cn1 [Example 16] | 79 | 12
Cc1ccc(-c2c(NS(C)(=O)=O)ncnc2OCCCOc2ncc(Br)cn2)cc1 [Example 50] | > 1000 | 397
CCCCS(=O)(=O)Nc1ncnc(OCCOc2ncc(SC)cn2)c1-c1ccc(Br)cc1 [Example 83] | 640 | 0.49
CCS(=O)(=O)Nc1ncnc(OCCOc2ncc(OC)cn2)c1-c1ccc(Cl)cc1 [Example 67] | > 1000 | 13
CCCS(=O)(=O)Nc1ncnc(OCCOc2ncc(S(C)(=O)=O)cn2)c1-c1ccc(Br)cc1 [Example 73] | 277 | 0.59
CS(=O)(=O)Nc1ncnc(OCCOc2ncc(S(C)(=O)=O)cn2)c1-c1ccc(Br)cc1 [Example 56] | 359 | 1.6
CS(=O)(=O)Nc1ncnc(OCCOc2ncc(Br)cn2)c1-c1ccc(Br)cc1 [Example 53] | 824 | 1.1
CCS(=O)(=O)Nc1ncnc(OCCOc2ncc(Br)cn2)c1-c1ccc(Br)cc1 [Example 58] | 838 | 0.66
CCCS(=O)(=O)Nc1ncnc(OCCOc2ncc(SC)cn2)c1-c1ccc(C)cc1 [Example 5, propane-1-sulfonic acid {6-[2-(5-methylsulfanyl-pyrimidin-2-yloxy)-ethoxy]-5-p-tolyo-pyrimidin-4-yl}-amide] | > 1000 | 3.6
COc1cnc(OCCOc2ncnc(NS(C)(=O)=O)c2Oc2ccccc2OC)nc1 [Example 18] | 841 | 205
CCS(=O)(=O)Nc1ncnc(OCCOc2ncc(SC)cn2)c1-c1ccc(Br)cc1 [Example 60] | 427 | 0.8
Cc1ccc(-c2c(NS(C)(=O)=O)ncnc2OCCOc2ncc(Br)cn2)cc1 [Example 47] | > 1000 | 2.9
CCCCS(=O)(=O)Nc1ncnc(OCCOc2ncc(S(C)(=O)=O)cn2)c1Oc1cccc(OC)c1 [Example 31] | 180 | 1.8
CCCS(=O)(=O)Nc1ncnc(OCCOc2ncc(OC)cn2)c1-c1ccc(Br)cc1 [Example 71] | > 1000 | 3.6
CCS(=O)(=O)Nc1nc(C2CC2)nc(OCCOc2ncc(S(C)(=O)=O)cn2)c1-c1ccc(C)cc1 [Example 65] | > 1000 | 1.4
CCCCS(=O)(=O)Nc1nc(-c2ncccn2)nc(OCCOc2ncc(SC)cn2)c1Oc1ccccc1OC [Example 27] | 153 | 2.8
COc1cnc(OCCOc2ncnc(NS(C)(=O)=O)c2-c2ccc(Br)cc2)nc1 [Example 54] | > 1000 | 18
CCS(=O)(=O)Nc1ncnc(OCCOc2ncc(SC)cn2)c1-c1ccc(C)cc1 [Example 2, ethanesulfonic acid {6-[2-(5-methylsulfanyl-pyrimidin-2-yloxy)-ethoxy]-5-p-tolyl-pyrimidin-4-yl}-amide] | 989 | 5.99
CCS(=O)(=O)Nc1nc(C2CC2)nc(OCCOc2ncc(Br)cn2)c1-c1ccc(C)cc1 [Example 62] | > 1000 | 5.5
COc1ccccc1Oc1c(NS(C)(=O)=O)ncnc1OCCOc1ncc(SC)cn1 [Example 19] | 155 | 22
